From patent US9221809B2 (MERCK SHARP & DOHME CORP., priority 2011, dated 2015) come the findings set out here.

Where two headings read alike, the source gives them in different places.

In general, IC50 refers to the midpoint of a concentration-inhibition curve.

The experiment deals with IRAK4 (Homo sapiens (Human), UniProt Q9NWZ3). Description: IRAK4 kinase activity, IMAP fluorescence polarization assay. Particulars: 100 μM ATP. In kind it is biochemical. In a few lines: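 GST-tagged IRAK4 at 0.5 nM phosphorylates 100 nM fluorescent peptide substrate with 100 μM ATP in pH 7.2 Tris buffer containing MgCl2, DTT and Tween 20, 30 min at 25 °C. Reaction stopped with IMAP binding reagent; phosphorylation read as increased fluorescence polarization.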
Sequence of IRAK4 (Q9NWZ3 whole entry): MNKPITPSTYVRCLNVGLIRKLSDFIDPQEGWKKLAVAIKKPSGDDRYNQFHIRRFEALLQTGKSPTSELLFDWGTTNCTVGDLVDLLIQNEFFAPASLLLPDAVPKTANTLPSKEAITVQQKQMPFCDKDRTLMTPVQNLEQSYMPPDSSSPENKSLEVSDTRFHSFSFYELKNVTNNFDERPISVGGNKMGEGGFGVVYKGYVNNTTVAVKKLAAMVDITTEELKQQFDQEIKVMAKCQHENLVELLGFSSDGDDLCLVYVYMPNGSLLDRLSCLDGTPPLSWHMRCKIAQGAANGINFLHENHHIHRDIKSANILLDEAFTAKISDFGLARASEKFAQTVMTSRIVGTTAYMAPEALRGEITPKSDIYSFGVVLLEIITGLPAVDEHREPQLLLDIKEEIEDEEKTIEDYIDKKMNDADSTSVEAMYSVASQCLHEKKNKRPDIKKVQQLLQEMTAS
Background: Fluorescence polarisation rises when a labelled molecule tumbles more slowly, as on binding a larger partner.

Setting [1] is: 0.5 nM GST tagged IRAK4, read-out: IRAK4 IC50.

`O=c1[nH]c(N2CCOCC2)nc(N[C@@H]2CCCNC2)c1-c1nc2cc(C3CC3)ccc2s1` [Example 346, 5-(5-cyclopropyl-1,3-benzothiazol-2-yl)-2-(morpholin-4-yl)-6-[[(3R)-piperidin-3-yl]amino]-3,4-dihydropyrimidin-4-one trifluoroacetic acid]: the IC50 under setting [1] is 330 nM. Still for that read-out and setting: the figure for `NC(=O)c1ccc2sc(-c3c(N[C@@H]4CCCNC4)nc(N4CCOCC4)[nH]c3=O)nc2c1` [Example 347, (R)-2-(2-morpholino-6-oxo-4-(piperidin-3-ylamino)-1,6-dihydropyrimidin-5-yl)benzo[d]thiazole-5-carboxamide] is 10 nM; for `N#Cc1ccc2sc(-c3c(N[C@@H]4CCCNC4)nc(N4CCOCC4)[nH]c3=O)nc2c1` [Example 348, 2-[2-(morpholin-4-yl)-6-oxo-4-[[(3R)-piperidin-3-yl]amino]-1,6-dihydropyrimidin-5-yl]-1,3-benzothiazole-5-carbonitrile] it is 5 nM; for `O=c1[nH]c(N2CCN(c3cccnc3)CC2)nc(N[C@@H]2CCCNC2)c1-c1nc(-c2ccc(F)cc2)cs1` [Example 349, 5-[4-(4-fluorophenyl)-1,3-thiazol-2-yl]-6-[[(3R)-piperidin-3-yl]amino]-2-[4-(pyridin-3-yl)piperazin-1-yl]-3,4-dihydropyrimidin-4-one] it is 20 nM. On to `O=c1[nH]c(N2CCN(c3ncccn3)CC2)nc(N[C@@H]2CCCNC2)c1-c1nc(-c2ccc(F)cc2)cs1` [Example 350, 5-[4-(4-fluorophenyl)-1,3-thiazol-2-yl]-6-[[(3R)-piperidin-3-yl]amino]-2-[4-(pyrimidin-2-yl)piperazin-1-yl]-3,4-dihydropyrimidin-4-one; trifluoroacetic acid], for which, for the setting “read-out: IC50”, the IC50 is 21 nM.

Consider `NCCNc1cccc2sc(-c3c(N[C@@H]4CCCNC4)nc(N4CCOCC4)[nH]c3=O)nc12` [Example 356, 5-[4-[(2-aminoethyl)amino]-1,3-benzothiazol-2-yl]-2-(morpholin-4-yl)-6-[[(3R)-piperidin-3-yl]amino]-3,4-dihydropyrimidin-4-one], for which the IC50 under setting [1] turned out to be 16 nM.
